{"source": "patent US12503444B2", "about": "“Compound containing benzene ring and application thereof” (WUHAN LL SCIENCE AND TECHNOLOGY DEVELOPMENT CO., LTD., priority 2019, dated 2025)", "data": [{"target": "T1, hP2X4 (human purinergic P2X receptor subtype 4) (Homo sapiens, UniProt Q99571)", "T1 sequence (Q99571 1-404 isoform Q99571-2)": "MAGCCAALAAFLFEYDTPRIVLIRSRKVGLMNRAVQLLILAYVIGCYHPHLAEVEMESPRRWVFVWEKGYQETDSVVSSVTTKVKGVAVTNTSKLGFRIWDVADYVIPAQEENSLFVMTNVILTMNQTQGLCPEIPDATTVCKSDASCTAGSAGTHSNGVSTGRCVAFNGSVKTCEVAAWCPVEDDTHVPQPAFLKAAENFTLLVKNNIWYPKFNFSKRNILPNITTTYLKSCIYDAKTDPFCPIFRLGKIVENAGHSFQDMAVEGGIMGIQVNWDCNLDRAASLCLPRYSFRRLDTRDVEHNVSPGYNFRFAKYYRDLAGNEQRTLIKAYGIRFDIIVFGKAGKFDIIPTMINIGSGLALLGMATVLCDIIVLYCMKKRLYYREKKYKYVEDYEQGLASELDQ", "test": "FLIPR assay of intracellular calcium increase induced by activation of hP2X4 expressed in HEK293 cells (agonist BZ-ATP 2.5 μM)", "type": "cell-based", "details": "HEK293 cells stably expressing hP2X4, FLIPR, class symbols, read-out: P2X4 IC50", "method": "(§1) The antagonist property of the compounds disclosed herein was determined using the FLIPR (fluorescence imaging plate reader) method, wherein the compounds are inhibitors for the intracellular calcium increase induced by activation of hP2X4 (human purinergic P2X receptor subtype 4, accession No. NM_001256796.2) expressed in HEK293 cells (human renal epithelial cell line, ATCC).\n(§2) HEK293 cells stably expressing hP2X4 were cultured in DMEM high glucose medium containing 10% FBS (fetal bovine serum, Biosera, FB-1058/500), 1% penicillin-streptomycin (Gibco, 15140-122) and 1 mg/mL G418 (CABIOCHE, 345810) in a cell incubator (37° C., […]). Cells at 400,000 cells/mL were seeded into a 384-well plate (10,000 cells/well) 18-24 h prior to the FLIPR experiment and then incubated overnight in a cell incubator. On the day of the experiment, the medium was discarded and the cells were washed in an FLIPR buffer (0.3 mL of probenecid (Thermo, P36400), 0.6 mL of 1 M HEPES (Invitrogen, 15630080) and 29.1 mL of HBSS (Invitrogen, 14065056) per 30 mL of the buffer). Each well was added with 20 μL of 0.5× Calcium 6 fluorescent dye (Molecular Devices, R8190) and then the cells were subjected to dye-loading incubation at 37° C. for 1.5 h. Each well was added with 10 μL of respective test compound (dissolved in DMSO at a concentration of 10 mM and serially diluted with buffer) or vehicle and the mixture was equilibrated for 30 min at room temperature. The cell plate was then placed in the FLIPR for baseline fluorescence measurements (excitation at 485 nm and emission at 525-535 nm). An agonist (BZ-ATP (Sigma, B6396) at a final concentration of 2.5 μM) or a vehicle (ultrapure water) was then added at 10 μL/well, fluorescence values were measured for 2 min at 1-second intervals, and finally the output fluorescence counts were analyzed.", "units": {"IC50": "nM"}, "values": [{"molecule": "2-(2-chlorophenyl)-N-(1-(2-hydroxyethyl)-4-sulfamoyl-2H-indazol-6-yl)acetamide [Compound 27-B]", "IC50": "50 to 200"}, {"molecule": "CCn1cc2c(S(N)(=O)=O)cc(NC(=O)Cc3ccccc3Cl)cc2n1", "note": "[Compound 4-A, (4-sulfonamide-6-N-(2-chlorophenylacetyl)-2-ethyl)-indazole]", "IC50": "≤ 10"}, {"molecule": "CC(C)n1ncc2c(S(N)(=O)=O)cc(NC(=O)Cc3ccccc3Cl)cc21", "note": "[Compound 6-B, 2-(2-chlorophenyl)-N-(1-isopropyl-4-sulfamoyl-1H-indazol-6-yl)acetamide]", "IC50": "10 to 50"}, {"molecule": "CC(C)(C)n1cc2c(S(N)(=O)=O)cc(NC(=O)Cc3ccccc3Cl)cc2n1", "note": "[Compound 9, 2-(2-chlorophenyl)-N-(2-(tert-butyl)-4-sulfamoyl-2H-indazol-6-yl)acetamide]", "IC50": "≤ 10"}, {"molecule": "NS(=O)(=O)c1cc(NC(=O)Cc2ccccc2Cl)cc2nn(CCF)cc12", "note": "[Compound 11, 2-(2-chlorophenyl)-N-(2-(2-fluoroethyl)-4-sulfamoyl-2H-indazol-6-yl)acetamide]", "IC50": "≤ 10"}, {"molecule": "CC(C)(F)n1cc2c(S(N)(=O)=O)cc(NC(=O)Cc3ccccc3Cl)cc2n1", "note": "[Compound 13, 2-(2-chlorophenyl)-N-(2-(2-fluoropropan-2-yl)-4-sulfamoyl-2H-indazol-6-yl)acetamide]", "IC50": "10 to 50"}, {"molecule": "C=CCn1cc2c(S(N)(=O)=O)cc(NC(=O)Cc3ccccc3Cl)cc2n1", "note": "[Compound 14-A]", "IC50": "≤ 10"}, {"molecule": "NS(=O)(=O)c1cc(NC(=O)Cc2ccccc2Cl)cc2c1cnn2CC1CC1", "note": "[Compound 15-B, 2-(2-chlorophenyl)-N-(1-(cyclopropylmethyl)-4-sulfamoyl-1H-indazol-6-yl)acetamide]", "IC50": "10 to 50"}, {"molecule": "NS(=O)(=O)c1cc(NC(=O)Cc2ccccc2Cl)cc2c1cnn2C(=O)C1CC1", "note": "[Compound 16-A, 2-(2-chlorophenyl)-N-(1-(cyclopropylcarbonyl)-4-sulfamoyl-1H-indazol-6-yl)acetamide]", "IC50": "10 to 50"}, {"molecule": "NS(=O)(=O)c1cc(NC(=O)Cc2ccccc2Cl)cc2nn(C(=O)C3CC3)cc12", "note": "[Compound 16-B, 2-(2-chlorophenyl)-N-(2-(cyclopropylcarbonyl)-4-sulfamoyl-2H-indazol-6-yl)acetamide]", "IC50": "≤ 10"}, {"molecule": "CC(C)C1(n2cc3c(S(N)(=O)=O)cc(NC(=O)Cc4ccccc4Cl)cc3n2)CC1", "note": "[Compound 17, 2-(2-chlorophenyl)-N-(2-(1-isopropylcyclopropyl)-4-sulfamoyl-2H-indazol-6-yl)acetamide]", "IC50": "10 to 50"}, {"molecule": "CCC1(n2cc3c(S(N)(=O)=O)cc(NC(=O)Cc4ccccc4Cl)cc3n2)CC1", "note": "[Compound 18, 2-(2-chlorophenyl)-N-(2-(1-ethylcyclopropyl)-4-sulfamoyl-2H-indazol-6-yl)acetamide]", "IC50": "10 to 50"}, {"molecule": "NS(=O)(=O)c1cc(NC(=O)Cc2ccccc2Cl)cc2nn(C(F)C3CC3)cc12", "note": "(stereo not shown) [Compound 19, 2-(2-chlorophenyl)-N-(2-(cyclopropylfluoromethyl)-4-sulfamoyl-2H-indazol-6-yl)acetamide]", "IC50": "10 to 50"}, {"molecule": "NS(=O)(=O)c1cc(NC(=O)Cc2ccccc2Cl)cc2nn(C(F)(F)C3CC3)cc12", "note": "[Compound 20, 2-(2-chlorophenyl)-N-(2-(cyclopropyldifluoromethyl)-4-sulfamoyl-2H-indazol-6-yl)acetamide]", "IC50": "10 to 50"}, {"molecule": "CC(C)(C1CC1)n1cc2c(S(N)(=O)=O)cc(NC(=O)Cc3ccccc3Cl)cc2n1", "note": "[Compound 21, 2-(2-chlorophenyl)-N-(2-(2-cyclopropylpropan-2-yl)-4-sulfamoyl-2H-indazol-6-yl)acetamide]", "IC50": "10 to 50"}, {"molecule": "CC1(n2cc3c(S(N)(=O)=O)cc(NC(=O)Cc4ccccc4Cl)cc3n2)CC1", "note": "[Compound 22, 2-(2-chlorophenyl)-N-(2-(1-methylcyclopropyl)-4-sulfamoyl-2H-indazol-6-yl)acetamide]", "IC50": "10 to 50"}, {"molecule": "CC(C)C(F)(F)n1cc2c(S(N)(=O)=O)cc(NC(=O)Cc3ccccc3Cl)cc2n1", "note": "[Compound 23, 2-(2-chlorophenyl)-N-(2-(1,1-difluoro-2-methylpropyl)-4-sulfamoyl-2H-indazol-6-yl)acetamide]", "IC50": "10 to 50"}, {"molecule": "COCCn1cc2c(S(N)(=O)=O)cc(NC(=O)Cc3ccccc3Cl)cc2n1", "note": "[Compound 25, 2-(2-chlorophenyl)-N-(2-(2-methoxyethyl)-4-sulfamoyl-2H-indazol-6-yl)acetamide]", "IC50": "10 to 50"}, {"molecule": "COCCn1ncc2c(S(N)(=O)=O)cc(NC(=O)Cc3ccccc3Cl)cc21", "note": "[Compound 25A]", "IC50": "10 to 50"}, {"molecule": "CC(C)OCCn1ncc2c(S(N)(=O)=O)cc(NC(=O)Cc3ccccc3Cl)cc21", "note": "[Compound 26-B, 2-(2-chlorophenyl)-N-(1-(2-isopropoxyethyl)-4-sulfamoyl-1H-indazol-6-yl)acetamide]", "IC50": "200 to 5000"}, {"molecule": "NS(=O)(=O)c1cc(NC(=O)Cc2ccccc2Cl)cc2nn(CCO)cc12", "note": "[Compound 27-A, 2-(2-chlorophenyl)-N-(2-(2-hydroxyethyl)-4-sulfamoyl-2H-indazol-6-yl)acetamide]", "IC50": "200 to 5000"}, {"molecule": "NS(=O)(=O)c1cc(NC(=O)Cc2ccccc2Cl)cc2nn(CCOC3CC3)cc12", "note": "[Compound 28, 2-(2-chlorophenyl)-N-(2-(2-cyclopropyloxyethyl)-4-sulfamoyl-2H-indazol-6-yl)acetamide]", "IC50": "10 to 50"}, {"molecule": "CC(C)NCCn1cc2c(S(N)(=O)=O)cc(NC(=O)Cc3ccccc3Cl)cc2n1", "note": "[Compound 29, 2-(2-chlorophenyl)-N-(2-(2-(isopropylamino)ethyl)-4-sulfamoyl-2H-indazol-6-yl)acetamide]", "IC50": "10 to 50"}, {"molecule": "CS(=O)(=O)CCn1cc2c(S(N)(=O)=O)cc(NC(=O)Cc3ccccc3Cl)cc2n1", "note": "[Compound 30, 2-(2-chlorophenyl)-N-(2-(2-(methylsulfonyl)ethyl)-4-sulfamoyl-2H-indazol-6-yl)acetamide]", "IC50": "10 to 50"}, {"molecule": "NS(=O)(=O)c1cc(NC(=O)Cc2ccccc2Cl)cc2c1cnn2CC1CCCC1", "note": "[Compound 31-B, 2-(2-chlorophenyl)-N-(1-(cyclopentylmethyl)-4-sulfamoyl-1H-indazol-6-yl)acetamide]", "IC50": "≤ 10"}, {"molecule": "NS(=O)(=O)c1cc(NC(=O)Cc2ccccc2Cl)cc2nn(CC3CCCCC3)cc12", "note": "[Compound 32-A, 2-(2-chlorophenyl)-N-(2-(cyclohexylmethyl)-4-sulfamoyl-2H-indazol-6-yl)acetamide]", "IC50": "≤ 10"}, {"molecule": "NS(=O)(=O)c1cc(NC(=O)Cc2ccccc2Cl)cc2c1cnn2CC1CCCCC1", "note": "[Compound 32-B, 2-(2-chlorophenyl)-N-(1-(cyclohexylmethyl)-4-sulfamoyl-1H-indazol-6-yl)acetamide]", "IC50": "10 to 50"}, {"molecule": "NS(=O)(=O)c1cc(NC(=O)Cc2ccccc2Cl)cc2nn(CCC3CC3)cc12", "note": "[Compound 33, 2-(2-chlorophenyl)-N-(2-(2-cyclopropylethyl)-4-sulfamoyl-2H-indazol-6-yl)acetamide]", "IC50": "≤ 10"}, {"molecule": "NS(=O)(=O)c1cc(NC(=O)Cc2ccccc2Cl)cc2nn(Cc3ccc(O)cc3)cc12", "note": "[Compound 34, 2-(2-chlorophenyl)-N-(2-(4-hydroxybenzyl)-4-sulfamoyl-2H-indazol-6-yl)acetamide]", "IC50": "10 to 50"}, {"molecule": "COc1ccccc1Cn1ncc2c(S(N)(=O)=O)cc(NC(=O)Cc3ccccc3Cl)cc21", "note": "[Compound 37-B, 2-(2-chlorophenyl)-N-(1-(2-methoxybenzyl)-4-sulfamoyl-1H-indazol-6-yl)acetamide]", "IC50": "10 to 50"}, {"molecule": "CN(C)c1cccc(Cn2cc3c(S(N)(=O)=O)cc(NC(=O)Cc4ccccc4Cl)cc3n2)c1", "note": "[Compound 38, 2-(2-chlorophenyl)-N-(2-(3-(dimethylamino)benzyl)-4-sulfamoyl-2H-indazol-6-yl)acetamide]", "IC50": "10 to 50"}, {"molecule": "COc1cnccc1Cn1cc2c(S(N)(=O)=O)cc(NC(=O)Cc3ccccc3Cl)cc2n1", "note": "[Compound 39, 2-(2-chlorophenyl)-N-(2-((3-methoxypyridin-4-yl)methyl)-4-sulfamoyl-2H-indazol-6-yl)acetamide]", "IC50": "10 to 50"}]}, {"target": "T1, hP2X4 (human purinergic P2X receptor subtype 4)", "test": "FLIPR assay of intracellular calcium increase induced by activation of hP2X4 expressed in HEK293 cells (agonist BZ-ATP 2.5 μM)", "type": "cell-based", "details": "HEK293 cells stably expressing hP2X4, FLIPR, numeric values, read-out: P2X4 IC50", "method": "as §1, §2", "units": {"IC50": "nM"}, "values": [{"molecule": "CC(C)n1cc2c(S(N)(=O)=O)cc(NC(=O)Cc3ccccc3Cl)cc2n1", "note": "[Compound 6-A, 2-(2-chlorophenyl)-N-(2-isopropyl-4-sulfamoyl-2H-indazol-6-yl)acetamide]", "IC50": 1.16}, {"molecule": "NS(=O)(=O)c1cc(NC(=O)Cc2ccccc2Cl)cc2nn(CC3CC3)cc12", "note": "[Compound 15-A, 2-(2-chlorophenyl)-N-(2-(cyclopropylmethyl)-4-sulfonamido-2H-indazol-6-yl)acetamide]", "IC50": 119}]}]}
